Measured values: ChEMBL document CHEMBL1201862, “PubChem BioAssay data set” (2004)
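Test compounds were applied to cells in 96-well plates for 48 hours at 5 doses. Here, GI50 denotes the concentration required for 50% inhibition of growth.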 Calls of active or inactive are those of the source. No stated cut-off is given here; in the data, active = GI50 up to about 1.1 µM and inactive = higher.

What was measured:
Assay in all cases: inhibition of tumour cell growth, NCI panel, 48 h
SW-620 = system: SW-620
MDA-MB-231 = system: MDA-MB-231
SNB-75 = system: SNB-75
HL-60 = system: HL-60
NCI-H23 = system: NCI-H23
RXF 393 = system: RXF 393
COLO 205 = system: COLO 205
786-0 = system: 786-0
U-251 = system: U-251
NCI/ADR-RES = system: NCI/ADR-RES
DU-145 = system: DU-145
SK-MEL-28 = system: SK-MEL-28
OVCAR-4 = system: OVCAR-4
UACC-62 = system: UACC-62
SNB-19 = system: SNB-19
TK-10 = system: TK-10
SF-295 = system: SF-295
SK-MEL-5 = system: SK-MEL-5
OVCAR-8 = system: OVCAR-8
HCT-116 = system: HCT-116
T47D = system: T47D
PC-3 = system: PC-3
EKVX = system: EKVX
HCT-15 = system: HCT-15
MCF7 = system: MCF7
SF-539 = system: SF-539
SK-OV-3 = system: SK-OV-3
SN12C = system: SN12C
OVCAR-5 = system: OVCAR-5
OVCAR-3 = system: OVCAR-3
A498 = system: A498
CAKI-1 = system: CAKI-1
RPMI-8226 = system: RPMI-8226
IGROV-1 = system: IGROV-1
KM12 = system: KM12
BT-549 = system: BT-549
LOX IMVI = system: LOX IMVI
M14 = system: M14
NCI-H460 = system: NCI-H460
Hs-578T = system: Hs-578T
A549 = system: A549
UACC-257 = system: UACC-257
ACHN = system: ACHN
SF-268 = system: SF-268
UO-31 = system: UO-31
HT-29 = system: HT-29
NCI-H522 = system: NCI-H522
CCRF-CEM = system: CCRF-CEM
HCC 2998 = system: HCC 2998
Malme-3M = system: Malme-3M
NCI-H226 = system: NCI-H226
MDA-N = system: MDA-N
HOP-92 = system: HOP-92
SR = system: SR
K562 = system: K562
HOP-62 = system: HOP-62
MDA-MB-435 = system: MDA-MB-435
SK-MEL-2 = system: SK-MEL-2
MOLT-4 = system: MOLT-4

## CC(C)(C)NC(=O)N1N=C(c2ccccc2)C1c1ccccc1 (configuration not stated)
SW-620
  GI50: 31.1 µM (inactive)
MDA-MB-231
  GI50: 95.9 µM (inactive)
SNB-75
  GI50: 87.1 µM (inactive)
HL-60
  GI50: 32.6 µM (inactive)
NCI-H23
  GI50: 35.9 µM (inactive)
RXF 393
  GI50: 14 µM (inactive)
COLO 205
  GI50: 35.7 µM (inactive)
786-0
  GI50: 15.7 µM (inactive)
U-251
  GI50: 69.3 µM (inactive)
NCI/ADR-RES
  GI50: 35.2 µM (inactive)
DU-145
  GI50: > 100 µM (inactive)
SK-MEL-28
  GI50: 48.3 µM (inactive)
OVCAR-4
  GI50: 56.5 µM (inactive)
UACC-62
  GI50: 52.6 µM (inactive)
SNB-19
  GI50: 34.3 µM (inactive)
TK-10
  GI50: 26 µM (inactive)
SF-295
  GI50: 35.6 µM (inactive)
SK-MEL-5
  GI50: 20.2 µM (inactive)
OVCAR-8
  GI50: 40.2 µM (inactive)
HCT-116
  GI50: 19.7 µM (inactive)
T47D
  GI50: 42.7 µM (inactive)
PC-3
  GI50: 26.6 µM (inactive)
EKVX
  GI50: 42.6 µM (inactive)
HCT-15
  GI50: 23.9 µM
MCF7
  GI50: 41.7 µM (inactive)
SF-539
  GI50: 22.1 µM (inactive)
SK-OV-3
  GI50: > 100 µM (inactive)
SN12C
  GI50: 43.5 µM (inactive)
OVCAR-5
  GI50: > 100 µM (inactive)
OVCAR-3
  GI50: 21.5 µM (inactive)
A498
  GI50: > 100 µM (inactive)
CAKI-1
  GI50: 26.4 µM (inactive)
RPMI-8226
  GI50: 22.5 µM (inactive)
IGROV-1
  GI50: 59.8 µM (inactive)
KM12
  GI50: 47.6 µM (inactive)
BT-549
  GI50: 29.9 µM (inactive)
LOX IMVI
  GI50: 35.7 µM (inactive)
M14
  GI50: 61.5 µM (inactive)
NCI-H460
  GI50: 41.1 µM (inactive)
Hs-578T
  GI50: 48.3 µM (inactive)
A549
  GI50: 31.5 µM (inactive)
UACC-257
  GI50: 25.5 µM (inactive)
ACHN
  GI50: 34.5 µM (inactive)
SF-268
  GI50: 66.5 µM (inactive)
UO-31
  GI50: 18.2 µM (inactive)
HT-29
  GI50: 18 µM (inactive)
NCI-H522
  GI50: 19.6 µM (inactive)
CCRF-CEM
  GI50: 22.6 µM (inactive)
HCC 2998
  GI50: > 100 µM (inactive)
Malme-3M
  GI50: 25.3 µM (inactive)
NCI-H226
  GI50: 48.4 µM (inactive)
MDA-N
  GI50: 44.6 µM (inactive)
HOP-92
  GI50: 22.3 µM (inactive)

## Cn1ccnc1CC(C)(O)c1ccccc1 (configuration not stated)
SW-620
  GI50: > 100 µM (inactive)
MDA-MB-231
  GI50: > 100 µM (inactive)
SNB-75
  GI50: > 100 µM (inactive)
SR
  GI50: > 100 µM (inactive)
NCI-H23
  GI50: > 100 µM (inactive)
RXF 393
  GI50: > 100 µM (inactive)
COLO 205
  GI50: > 100 µM (inactive)
786-0
  GI50: > 100 µM (inactive)
U-251
  GI50: > 100 µM (inactive)
NCI/ADR-RES
  GI50: > 100 µM (inactive)
DU-145
  GI50: > 100 µM (inactive)
SK-MEL-28
  GI50: > 100 µM (inactive)
OVCAR-4
  GI50: > 100 µM (inactive)
K562
  GI50: > 100 µM (inactive)
UACC-62
  GI50: > 100 µM (inactive)
HOP-62
  GI50: > 100 µM (inactive)
SNB-19
  GI50: > 100 µM (inactive)
TK-10
  GI50: > 100 µM (inactive)
SF-295
  GI50: > 100 µM (inactive)
SK-MEL-5
  GI50: > 100 µM (inactive)
OVCAR-8
  GI50: > 100 µM (inactive)
HCT-116
  GI50: > 100 µM (inactive)
PC-3
  GI50: > 100 µM (inactive)
EKVX
  GI50: > 100 µM (inactive)
HCT-15
  GI50: > 100 µM
MCF7
  GI50: > 100 µM (inactive)
SF-539
  GI50: > 100 µM (inactive)
SK-OV-3
  GI50: > 100 µM (inactive)
SN12C
  GI50: > 100 µM (inactive)
OVCAR-5
  GI50: > 100 µM (inactive)
OVCAR-3
  GI50: > 100 µM (inactive)
A498
  GI50: > 100 µM (inactive)
CAKI-1
  GI50: > 100 µM (inactive)
RPMI-8226
  GI50: > 100 µM (inactive)
IGROV-1
  GI50: > 100 µM (inactive)
KM12
  GI50: > 100 µM (inactive)
BT-549
  GI50: > 100 µM (inactive)
LOX IMVI
  GI50: > 100 µM (inactive)
M14
  GI50: > 100 µM (inactive)
NCI-H460
  GI50: > 100 µM (inactive)
Hs-578T
  GI50: > 100 µM (inactive)
A549
  GI50: > 100 µM (inactive)
UACC-257
  GI50: > 100 µM (inactive)
MDA-MB-435
  GI50: > 100 µM (inactive)
ACHN
  GI50: > 100 µM (inactive)
SK-MEL-2
  GI50: > 100 µM (inactive)
SF-268
  GI50: > 100 µM (inactive)
UO-31
  GI50: > 100 µM (inactive)
HT-29
  GI50: > 100 µM (inactive)
NCI-H522
  GI50: > 100 µM (inactive)
HCC 2998
  GI50: > 100 µM (inactive)
Malme-3M
  GI50: > 100 µM (inactive)
NCI-H226
  GI50: > 100 µM (inactive)
MDA-N
  GI50: > 100 µM (inactive)
HOP-92
  GI50: > 100 µM (inactive)

## CC(C)(C)/C(O)=C\c1nc2ccc(C(F)(F)F)cc2[nH]c1=O
SW-620
  GI50: > 100 µM (inactive)
MDA-MB-231
  GI50: > 100 µM (inactive)
SNB-75
  GI50: > 100 µM (inactive)
SR
  GI50: > 100 µM (inactive)
NCI-H23
  GI50: > 100 µM (inactive)
RXF 393
  GI50: > 100 µM (inactive)
COLO 205
  GI50: > 100 µM (inactive)
786-0
  GI50: > 100 µM (inactive)
U-251
  GI50: > 100 µM (inactive)
NCI/ADR-RES
  GI50: > 100 µM (inactive)
DU-145
  GI50: > 100 µM (inactive)
SK-MEL-28
  GI50: > 100 µM (inactive)
OVCAR-4
  GI50: > 100 µM (inactive)
K562
  GI50: > 100 µM (inactive)
UACC-62
  GI50: > 100 µM (inactive)
HOP-62
  GI50: > 100 µM (inactive)
SNB-19
  GI50: > 100 µM (inactive)
TK-10
  GI50: > 100 µM (inactive)
SF-295
  GI50: > 100 µM (inactive)
SK-MEL-5
  GI50: > 100 µM (inactive)
OVCAR-8
  GI50: > 100 µM (inactive)
HCT-116
  GI50: > 100 µM (inactive)
T47D
  GI50: > 100 µM (inactive)
PC-3
  GI50: > 100 µM (inactive)
EKVX
  GI50: > 100 µM (inactive)
HCT-15
  GI50: > 100 µM
SK-OV-3
  GI50: > 100 µM (inactive)
SN12C
  GI50: > 100 µM (inactive)
OVCAR-5
  GI50: > 100 µM (inactive)
OVCAR-3
  GI50: > 100 µM (inactive)
A498
  GI50: > 100 µM (inactive)
CAKI-1
  GI50: > 100 µM (inactive)
RPMI-8226
  GI50: > 100 µM (inactive)
IGROV-1
  GI50: > 100 µM (inactive)
KM12
  GI50: > 100 µM (inactive)
BT-549
  GI50: > 100 µM (inactive)
LOX IMVI
  GI50: > 100 µM (inactive)
M14
  GI50: > 100 µM (inactive)
Hs-578T
  GI50: > 100 µM (inactive)
A549
  GI50: > 100 µM (inactive)
UACC-257
  GI50: > 100 µM (inactive)
MDA-MB-435
  GI50: > 100 µM (inactive)
ACHN
  GI50: > 100 µM (inactive)
MOLT-4
  GI50: > 100 µM (inactive)
SK-MEL-2
  GI50: > 100 µM (inactive)
SF-268
  GI50: > 100 µM (inactive)
UO-31
  GI50: > 100 µM (inactive)
HT-29
  GI50: > 100 µM (inactive)
NCI-H522
  GI50: > 100 µM (inactive)
CCRF-CEM
  GI50: > 100 µM (inactive)
Malme-3M
  GI50: > 100 µM (inactive)
NCI-H226
  GI50: > 100 µM (inactive)
MDA-N
  GI50: > 100 µM (inactive)
HOP-92
  GI50: > 100 µM (inactive)
